Several values for one entry are separate records, joined by “and”; a condition that tells them apart may be missing. Equal entries are not always repeated.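 These data come from cells grown in 96-well plates and exposed to compound for 48 hours at five concentrations. GI50 is the concentration that inhibits growth by half. TGI denotes the concentration required for complete inhibition of growth.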

The text below walks through data of PubChem BioAssay (NCI).

Assay in all cases: growth of human tumour cells (NCI), 48 h
Experiment [1] concerns EKVX NSCLC.
Experiment [2] has as its system MALME-3M melanoma.
In experiment [3] the test system is NCI-H460 lung.
Experiment [4] relates to SF-295 CNS.
The test system of experiment [5] is SK-MEL-5 melanoma.
Experiment [6] has as its system SN12C renal.
Experiment [7] relates to SNB-19 CNS.
Experiment [8] has as its system UO-31 renal.
The subject of experiment [9] is RPMI-8226 leukemia.
Experiment [10] relates to SR leukemia.

Turning to `C[C@@H]1C=C(CCCCCCCCCCC[C@H](O)[C@@H]2CCC(=O)O2)C(=O)O1`, the GI50 in experiment [1] was 33.2 µM; in [2], 19.1 µM; in experiment [3], 31.2 µM; in experiment [4], 19.8 µM; in [5] it was 14.5 µM; in experiment [6], 25.3 µM. Also, the GI50 in experiment [7] was 86.5 µM; in experiment [8], 20.1 µM. In addition, the TGI in experiment [1] was over 100 µM; in experiment [2] it was 46.6 µM; in [3] it was over 100 µM; in experiment [4] it was 48.6 µM; in experiment [5] it was 28.1 µM; in experiment [6] it was 82.8 µM. Moreover, the figures for the TGI in experiment [7] and in experiment [8] were over 100 µM and 55.6 µM, respectively.
On to `O=C1c2cccc3cc([N+](=O)[O-])cc(c23)C(=O)N1CCNCCNCCNCCN1C(=O)c2cccc3cc([N+](=O)[O-])cc(c23)C1=O`, for which the TGI was 0.88 µM in experiment [1]; 0.297 µM in experiment [2]; 0.0413 µM in [3]; 0.422 µM and 0.465 µM in experiment [4]; 1.52 µM and 0.174 µM in [5]; 2.77 µM and 2.65 µM in [6]. The TGI was 2.34 µM and 0.926 µM in [7]; 2.16 µM in experiment [8]. For the same compound, the GI50 in experiment [5] was 0.0176 µM; in experiment [6] it was 0.0367 µM.
Consider `CCN1C2=NC(=O)N(C)C(=O)C2(Cl)C(C(SC)S(=O)(=O)c2ccc(C)cc2)c2ccccc21` (configuration not stated), for which the TGI in experiment [1] is over 100 µM; in [2], over 100 µM; in experiment [3], over 100 µM; in [9], 41.6 µM; in experiment [4], over 100 µM; in [5], over 100 µM. Moreover, the TGI in experiment [6] is over 100 µM; in [7], over 100 µM; in experiment [8], 76.1 µM.
On to `COC(=O)C1=C(C)N(NC(N)=O)C2(N)N(NC(N)=O)C(C)=C(C(=O)OC)C12C(=O)OC` (configuration not stated), for which the TGI in experiment [1] was over 100 µM; in [2], over 100 µM; in [3], over 100 µM; in experiment [9], over 100 µM; in [4], over 10 µM; in experiment [6] it was over 100 µM. Moreover, the TGI in [7] and in experiment [8] was over 100 µM in each case.
As to `CCOP(=O)(OCC)C(NC(c1ccccc1)c1ccccc1)c1ccccc1` (configuration not stated), the GI50 in experiment [1] was 13.4 µM; in experiment [3], 17.2 µM; in [9], 4.18 µM; in experiment [4], 2.05 µM; in [5] it was 19 µM; in [6], 16.8 µM. Further, the values for the GI50 in experiment [7] and in experiment [8] were 48.1 µM and 14.9 µM, respectively. The TGI was 28.5 µM in [1]; 41 µM in experiment [3]; 22.3 µM in [9]; 14.8 µM in experiment [4]; 33.3 µM in [5]; 32.6 µM in experiment [6]. Moreover, the results for the TGI in [7] and in experiment [8] were over 100 µM and 30.2 µM, respectively.
Regarding `CCOc1ccc(N=Cc2cccc3cccnc23)cc1`, the TGI in [1], in [2], in [3], in experiment [9], in experiment [4] and in [5] was over 100 µM each time. For the same compound, the TGI in experiment [6] and in experiment [7] was over 100 µM throughout.
`N[C@@H](Cc1c[nH]c2ccccc12)C(=O)NC1CCN(C(=O)c2c[nH]c3ccccc23)CC1`: the GI50 in experiment [1] was over 100 µM; in experiment [2] it was 77.5 µM; in [3] it was 79.9 µM; in [9], over 100 µM; in [4], over 100 µM; in experiment [5] it was over 100 µM. Also, the figures for the GI50 in [6], in experiment [7] and in experiment [8] were over 100 µM, 99.8 µM and over 100 µM, respectively. The TGI in experiment [1], in [2], in experiment [3], in experiment [9], in experiment [4] and in [5] was over 100 µM each time. Besides, the TGI in [6], in [7] and in experiment [8] was over 100 µM throughout.
Consider `COc1ccc(C=C2C(=O)OC(C)(C)OC2=O)cc1OC`, for which the TGI in experiment [1], in experiment [2], in [3], in experiment [9], in experiment [4] and in [5] was over 100 µM throughout. Further, the TGI in experiment [6], in experiment [7] and in experiment [8] was over 100 µM throughout.
As for `C/C(=N/S(=O)(=O)c1ccc(Cl)c(Cl)c1)OCC(C)(C)C`, the TGI in experiment [1], in experiment [2], in experiment [3], in experiment [9], in [4] and in [5] was over 100 µM in each case. The TGI in experiment [6], in [7] and in [8] was over 100 µM each time.
For the compound `Nc1ccccc1C#C/C=C\C#Cc1ccccc1C(F)(F)F`, the GI50 in experiment [1] is 0.895 µM; in experiment [3] it was 1.53 µM; in experiment [9], 1.46 µM; in [4], 0.958 µM; in [5], 0.841 µM; in [6], 0.399 µM. For the same compound, the GI50 in [7] is 10.5 µM; in experiment [10], 0.247 µM; in [8], 4.08 µM. Also, the TGI in experiment [1] was 15.2 µM; in experiment [3], over 40 µM; in experiment [9] it was over 51 µM; in experiment [4], 3.62 µM; in [5] it was 6.3 µM; in experiment [6], 9.45 µM. Besides, the TGI in experiment [7] is 58.7 µM; in [10], 0.691 µM; in experiment [8] it was 23.4 µM.
Regarding `CC(O)/C=C/C(CCC(C)CO)C(C)C` (configuration not stated), the TGI in experiment [1], in experiment [2], in experiment [3], in [9], in experiment [4] and in experiment [5] was over 100 µM in each case. In addition, the TGI in [6], in experiment [7] and in experiment [8] was over 100 µM in each case.
Consider `CC(C)NCCNC(=O)c1ccccc1Nc1c(Cl)cccc1Cl`, for which the TGI in experiment [1] stood at 28.1 µM; in experiment [3], 11 µM; in [9], 16.2 µM; in experiment [4] it was 28.5 µM; in [5], 17.3 µM; in experiment [6], 26.8 µM. The TGI in experiment [7] came to 30 µM; in experiment [10], 26.8 µM; in experiment [8], 21.8 µM.
For the compound `Oc1ccc(Cc2ccc(O)c3ncccc23)c2cccnc12`, the GI50 in [1] was 0.344 µM; in experiment [2] it was 0.0497 µM; in [3], 0.0323 µM; in [9], 0.0424 µM; in experiment [4], 0.294 µM; in experiment [5], 0.12 µM. In addition, the GI50 was 0.0361 µM in experiment [6], 0.0361 µM in experiment [7] and 0.0322 µM in experiment [8]. Besides, the TGI was over 100 µM in [1]; over 100 µM in experiment [2]; over 100 µM in experiment [3]; 1.55 µM in experiment [9]; 0.948 µM in [4]; 0.609 µM in [5]. Besides, the results for the TGI in [6], in experiment [7] and in experiment [8] were over 100 µM, 29.6 µM and over 100 µM, respectively.
In the case of `COc1ccc2[nH]c(-c3ccccn3)cc(=O)c2c1`, the TGI in [1] was over 100 µM; in [2] it was 75.6 µM; in [3], over 100 µM; in [9], over 100 µM; in [4], over 100 µM; in [5], over 100 µM. In addition, the TGI in experiment [6], in experiment [7] and in [8] was over 100 µM throughout. Moreover, the results for the GI50 in experiment [4] and in [5] were 51.5 µM and 28.5 µM, respectively.
Consider `Oc1ccc(/C=N\Nc2ccccn2)c(O)c1`, for which the GI50 in experiment [1] was 1.4 µM; in experiment [3], 0.443 µM; in [9], 1.45 µM; in [4], 0.318 µM; in [5] it was 2.17 µM; in [6] it was 2.48 µM. Further, the GI50 in experiment [7] is 2.97 µM; in experiment [10], 0.311 µM; in [8], 0.241 µM. The TGI was 7.46 µM in [1]; 3.99 µM in experiment [3]; over 100 µM in experiment [9]; 0.767 µM in [4]; over 100 µM in experiment [5]; over 100 µM in experiment [6]. For the same compound, the TGI in [7] is over 100 µM; in [10] it was 11.7 µM; in experiment [8] it was 0.719 µM.
As for `CCCC1c2c(ccc3ccccc23)Oc2ccc3ccccc3c21`, the TGI is over 100 µM in [1]; over 100 µM in experiment [2]; over 100 µM in [3]; 98.6 µM in [9]; 88.6 µM in experiment [4]; over 100 µM in experiment [5]. Besides, the TGI in experiment [6], in experiment [7] and in [8] was over 100 µM each time.
Turning to `COC(=O)C1CC(C(=O)OC)c2nc3cc(C)ccc3nc21` (configuration not stated), the TGI in experiment [1], in experiment [2], in experiment [3], in experiment [9], in experiment [4] and in experiment [5] was over 100 µM each time. The TGI in [6], in [7] and in experiment [8] was over 100 µM in each case.
Consider `O=S(=O)([O-])c1cccc2cccc(N=Cc3ccccc3[O-])c12.O=S(=O)([O-])c1cccc2cccc(N=Cc3ccccc3[O-])c12.[O]=[U]=[O]`, for which the GI50 in [1] was over 100 µM; in [2] it was over 100 µM; in [3], 55.6 µM; in experiment [9] it was 39.8 µM; in [4], 67.5 µM; in [6], over 100 µM. Moreover, the GI50 in experiment [7] is 45.6 µM; in experiment [8] it was 50.7 µM. For the same compound, the TGI in [1], in [2], in experiment [3], in [9], in experiment [4] and in experiment [6] was over 100 µM in each case. Further, the TGI in experiment [7] and in experiment [8] was over 100 µM in each case.
As to `CC(=O)Nc1ccc(/C=C/[N+](=O)[O-])cc1`, the TGI in experiment [1] was found to be 12.9 µM; in [2] it was 17.7 µM; in experiment [3], 20.7 µM; in experiment [9], 4.73 µM; in [4], 14 µM; in experiment [5], 5.97 µM. In addition, the TGI in [6] stood at 9.8 µM; in [7], 20.5 µM; in [8], 4.58 µM.
Take `OCCCCC#Cc1ccccc1C#Cc1ccccc1`: the GI50 in experiment [1] was 6.59 µM; in experiment [2], 16.9 µM; in [3], 22.4 µM; in [9] it was 15.9 µM; in [4], 7.65 µM; in [5], 14.4 µM. The GI50 in experiment [6] is 13.5 µM; in experiment [7] it was 0.153 µM; in experiment [8], 28.4 µM. Further, the TGI in [1] is 22.4 µM; in [2], 32.1 µM; in experiment [3] it was 62.6 µM; in [9], 37.7 µM; in experiment [4], 22.6 µM; in experiment [5], 28.6 µM. The TGI in experiment [6] is 27.8 µM; in [7] it was 37.2 µM; in [8], over 100 µM.
Turning to `O=c1c2ccccc2c2ccccc2c(=O)n1-c1cc2c3ccccc3ccc2c2ccccc12`, the TGI in experiment [1], in experiment [2], in [3], in [9], in [4] and in [5] was over 100 µM in each case. Besides, the TGI in experiment [6], in [7] and in experiment [8] was over 100 µM each time.
On to `CSc1nc(NC2OCC(OC(C)=O)C(OC(C)=O)C2OC(C)=O)c2c(OC(C)=O)c(C)c(=O)oc2n1` (configuration not stated), for which the TGI in [1], in experiment [2], in [3], in experiment [9], in [4] and in experiment [5] was over 100 µM throughout. The TGI in experiment [6], in experiment [7] and in experiment [8] was over 100 µM throughout.
With `CCCCCCCCCCC/C(=N/O)c1ccc(O)c2ncccc12`, the TGI in experiment [1] was 20.1 µM; in [2], 12.6 µM; in experiment [3], 17 µM; in [4], 6.78 µM; in experiment [5] it was 4.18 µM; in experiment [7], over 100 µM. Besides, the TGI in experiment [8] is 11.4 µM.
